In patent US8598190B2, “3H-imidazo [4, 5-C] pyridine-6-carboxamides as anti-inflammatory agents” (Boehringer Ingelheim International GmbH, priority 2008, dated 2013):

Molecular target: T1, recombinant human mPGES-1 (Homo sapiens, UniProt O14684)
T1 construct: made in house; host or cells: Rosetta E. coli (microsomal/membrane fraction)
T1 sequence (O14684 1-152): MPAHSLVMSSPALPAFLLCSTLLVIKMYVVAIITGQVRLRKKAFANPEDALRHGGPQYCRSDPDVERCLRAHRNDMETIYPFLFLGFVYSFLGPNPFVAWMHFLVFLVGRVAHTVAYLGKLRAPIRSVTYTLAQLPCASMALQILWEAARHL
Experiment: mPGES-1 inhibition test (microsomes, HTRF detection of PGE2)
Format: biochemical
Method: Microsomes from Rosetta E. coli bacteria expressing recombinant human mPGES-1 is dissolved in 0.1 M KPi pH 7.4 buffer containing 2.5 mM GSH. 50 μl of the enzyme is subsequently dispensed in a 384-well plate. 0.5 μl of the inhibitor dissolved in DMSO at is thereafter added to each well and incubated for 25 minutes at room temperature.
Subsequently, 2 μl of PGH2 dissolved in an appropriate solvent is added to each well and after one minute the acidified stop solution containing FeCl2 is added. 4 μl of the total volume is transferred to a separate plate and diluted 750-fold in two separate steps before HTRF detection of PGE2.
The HTRf detection is performed by the use of a commercially available kit from CisBio essentially according to the manufacturer's protocol. Briefly, 10 μl of the diluted sample is transferred to a white 384-well plate. 5 μl of d2 and 5 μl Eu3+-Cryptate labeled anti-PGE2 is added to each well containing samples by the use of a Multidrop. The plate is covered with a plastic self-adhesive film, centrifuged at 1200 rpm for 1 minute and subsequently stored at +4° C. over night.
After over night incubation the fluorescence is measured by the use of an appropriate microplate reader. The fluorescence of europium cryptate, and d2 are measured using the following excitation and emission wavelength, europium cryptate: λmax^ex=307 nm, λmax^em=620 nm and d2: λmax^ex=620 nm, λmax^em=665 nm), respectively. The extent of the specific FRET is measured as a ratio of the emission intensity at 665 nm vs. that at 620 nm. A standard curve using synthetic PGE2 is used to quantify the amount of PGE2 in unknown samples.

Compound	inhibition at 10 µM [%]
Cn1c(Nc2c(Cl)cncc2Cl)nc2cc(C(=O)Nc3ccc(Br)cc3)ncc21 [Example 472, N-(4-Bromophenyl)-2-(3,5-dichloropyridin-4-ylamino)-3-methyl-3H-imidazo[4,5-c]-pyridine-6-carboxamide]	96
Cn1c(Nc2c(F)cccc2Cl)nc2cc(C(=O)NC3CCCCC3)ncc21 [Example 444, 2-(2-Chloro-6-fluorophenylamino)-N-cyclohexyl-3-methyl-3H-imidazo[4,5-c]-pyridine-6-carboxamide]	100
O=C(Nc1cc(C(F)(F)F)ccn1)c1cc2[nH]c(Nc3c(Cl)cncc3Cl)nc2cn1 [Example 366, 2-(3,5-Dichloropyridin-4-ylamino)-N-(4-trifluoromethyl-pyridin-2-yl)-1H-imidazo[4,5-c]pyridine-6-carboxamide]	100
Cn1c(Nc2c(Cl)cncc2Cl)nc2cc(C(=O)NCc3ncccc3C(F)(F)F)ncc21 [Example 550, 2-(3,5-Dichloropyridin-4-ylamino)-3-methyl-N-((3-trifluoromethyl-pyridin-2-yl)-methyl)-3H-imidazo[4,5-c]pyridine-6-carboxamide]	95
CC1(C)CCC(NC(=O)c2cc3nc(Nc4c(Cl)cccc4Cl)[nH]c3cn2)CC1 [Example 83, 2-(2,6-Dichloro-phenylamino)-3H-imidazo[4,5-c]pyridine-6-carboxylic acid (4,4-dimethyl-cyclohexyl)-amide]	100
Cn1c(Nc2c(F)cccc2Cl)nc2cc(C(=O)Nc3cc(C(F)(F)F)ccn3)ncc21 [Example 360, 2-(2-Chloro-6-fluoro-phenylamino)-3-methyl-N-(4-trifluoromethyl-pyridin-2-yl)-3-H-imidazo[4,5-c]pyridine-6-carboxamide]	100
Cn1c(Nc2c(Cl)cncc2Cl)nc2cc(C(=O)NC3CCC(C)(C)CC3)ncc21 [Example 478, 2-(3,5-Dichloropyridin-4-ylamino)-N-(4,4-dimethylcyclohexyl)-3-methyl-3H-imidazo[4,5-c]pyridine-6-carboxamide]	100
Cc1cc(C)nc(NC(=O)c2cc3[nH]c(Nc4c(Cl)cccc4Cl)nc3cn2)c1 [Example 716, 2-(2,6-Dichlorophenylamino)-N-(4,6-dimethyl-pyridin-2-yl)-1H-imidazo[4,5-c]pyridine-6-carboxamide]	100
O=C(NCc1ccccc1C(F)(F)F)c1cc2[nH]c(Nc3c(Cl)cccc3Cl)nc2cn1 [Example 477, 2-(2,6-Dichlorophenylamino)-N-(2-trifluoromethyl-benzyl)-1H-imidazo[4,5-c]pyridine-6-carboxamide]	97
Cc1cnc(NC(=O)c2cc3[nH]c(Nc4c(Cl)cccc4Cl)nc3cn2)cc1C [Example 717, 2-(2,6-Dichlorophenylamino)-N-(4,5-dimethyl-pyridin-2-yl)-1H-imidazo[4,5-c]pyridine-6-carboxamide]	100
O=C(NCC(F)(F)C(F)(F)C(F)(F)C(F)(F)C(F)(F)C(F)(F)C(F)(F)F)c1cc2[nH]c(Nc3c(Cl)cccc3Cl)nc2cn1 [Example 721, 2-(2,6-Dichlorophenylamino)-N-(2,2,3,3,4,4,5,5,6,6,7,7,8,8,8-pentadecafluoro-octyl)-1H-imidazo[4,5-c]pyridine-6-carboxamide]	100
Cn1c(Nc2c(Cl)cccc2Cl)nc2cc(C(=O)NCc3ncccc3C(F)(F)F)ncc21 [Example 528, 2-(2,6-Dichlorophenylamino)-3-methyl-N-((3-trifluoromethyl-pyridin-2-yl)-methyl)-3H-imidazo[4,5-c]pyridine-6-carboxamide]	96
O=C(Nc1cc(OC2CCCC2)ccn1)c1cc2[nH]c(Nc3c(Cl)cccc3Cl)nc2cn1 [Example 440, N-(4-(Cyclopentyloxy)pyridin-2-yl)-2-(2,6-dichlorophenylamino)-1H-imidazo[4,5-c]pyridine-6-carboxamide]	100
Cn1c(Nc2c(Cl)cncc2Cl)nc2cc(C(=O)Nc3cc(C(F)(F)F)ccn3)ncc21 [Example 482, 2-(3,5-Dichloropyridin-4-ylamino)-3-methy-N-(4-trifluoromethyl-pyridin-2-yl)-3H-imidazo[4,5-c]pyridine-6-carboxamide]	98
O=C(NC1CCCCC1)c1cc2[nH]c(Nc3c(Cl)cccc3Cl)nc2cn1 [Example 137, 2-(2,6-Dichloro-phenylamino)-3H-imidazo[4,5-c]pyridine-6-carboxylic acid-cyclohexyl-amide]	100
Cn1c(Nc2c(F)cccc2Cl)nc2cc(C(=O)N[C@H]3CC[C@H](C(F)(F)F)CC3)ncc21 [Example 431, 2-(2-Chloro-6-fluorophenylamino)-3-methyl-N-((1r,4r)-4-trifluoromethyl-cyclohexyl)-3H-imidazo[4,5-c]pyridine-6-carboxamide]	100
CC(C)(C)c1ccnc(NC(=O)c2cc3[nH]c(Nc4c(Cl)cccc4Cl)nc3cn2)c1 [Example 396, N-(4-tert.-Butyl-pyridin-2-yl)-2-(2,6-dichlorophenylamino)-1H-imidazo[4,5-c]pyridine-6-carboxamide]	100
Cn1c(Nc2c(F)cccc2Cl)nc2cc(C(=O)Nc3ccc(Br)cc3)ncc21 [Example 361, N-(4-Bromophenyl)-2-(2-chloro-6-fluoro-phenylamino)-3-methyl-3H-imidazo[4,5-c]pyridine-6-carboxamide]	100
Cn1c(Nc2c(Cl)cccc2Cl)nc2cc(C(=O)Nc3ccc(Br)cc3)ncc21 [Example 365, N-(4-Bromophenyl)-2-(2,6-dichlorophenylamino)-3-methyl-3H-imidazo[4,5-c]pyridine-6-carboxamide]	100

Now from value to compound:

inhibition at 10 µM [%]	Compound
100	Cc1cc(NC(=O)c2cc3nc(Nc4c(Cl)cccc4Cl)n(C)c3cn2)ncc1Cl [Example 726, 2-(2,6-Dichlorophenylamino)-3-methyl-N-(5-chloro-4-methyl-pyridin-2-yl)-3H-imidazo[4,5-c]pyridine-6-carboxamide]
98	O=C(Nc1cc(C(F)(F)F)ccn1)c1cc2[nH]c(Nc3c(Cl)cccc3C(F)(F)F)nc2cn1 [Example 728, 2-(2-Chloro-6-trifluoromethyl-phenylamino)-N-(4-trifluoromethyl-pyridin-2-yl)-1H-imidazo[4,5-c]pyridine-6-carboxamide]
100	O=C(Nc1cc(C(F)(F)F)ccn1)c1cc2[nH]c(Nc3c(F)cccc3Cl)nc2cn1 [Example 729, 2-(2-Chloro-6-fluoro-phenylamino)-N-(4-trifluoromethyl-pyridin-2-yl)-1H-imidazo[4,5-c]pyridine-6-carboxamide]
97	CC(C)c1ccc(NC(=O)c2cc3[nH]c(Nc4c(Cl)cncc4Cl)nc3cn2)nc1 [Example 737, 2-(3,5-Dichloro-pyridin-4-yl-amino)-N-(5-isopropyl-pyridin-2-yl)-1H-imidazo[4,5-c]pyridine-6-carboxamide]
100	O=C(Nc1cc(C(F)(F)F)cc(C2CC2)n1)c1cc2[nH]c(Nc3c(Cl)cncc3Cl)nc2cn1 [Example 740, 2-(3,5-Dichloro-pyridin-4-yl-amino)-N-(6-cyclopropyl-4-trifluoromethyl-pyridin-2-yl)-1H-imidazo[4,5-c]pyridine-6-carboxamide]
100	O=C(Nc1ccc(Br)cc1)c1cc2[nH]c(Nc3c(Cl)cccc3Cl)nc2cn1 [Example 722, 2-(2,6-Dichlorophenylamino)-N-(4-bromo-phenyl)-1H-imidazo[4,5-c]pyridine-6-carboxamide]
99	Cc1cnc(NC(=O)c2cc3[nH]c(Nc4c(Cl)cncc4Cl)nc3cn2)cc1C1CC1 [Example 735, 2-(3,5-Dichloro-pyridin-4-yl-amino)-N-(4-cyclopropyl-5-methyl-pyridin-2-yl)-1H-imidazo[4,5-c]pyridine-6-carboxamide]
99	O=C(Nc1cc(C(F)(F)F)ccn1)c1cc2[nH]c(Nc3c(F)cccc3C(F)(F)F)nc2cn1 [Example 727, 2-(2-Fluoro-6-trifluoromethyl-phenylamino)-N-(4-trifluoromethyl-pyridin-2-yl)-1H-imidazo[4,5-c]pyridine-6-carboxamide]
100	CN(C)c1cc(C(F)(F)F)cc(NC(=O)c2cc3[nH]c(Nc4c(Cl)cncc4Cl)nc3cn2)n1 [Example 739, 2-(3,5-Dichloro-pyridin-4-yl-amino)-N-(6-dimethylamino-4-trifluoromethyl-pyridin-2-yl)-1H-imidazo[4,5-c]pyridine-6-carboxamide]
98	O=C(Nc1cc(C(F)(F)F)cc(Cl)n1)c1cc2[nH]c(Nc3c(Cl)cncc3Cl)nc2cn1 [Example 736, 2-(3,5-Dichloro-pyridin-4-yl-amino)-N-(6-chloro-4-trifluoromethyl-pyridin-2-yl)-1H-imidazo[4,5-c]pyridine-6-carboxamide]
